Legend:
[1] = test system: Murine CPK Cells; test: 3H-thymidine incorporation (DNA synthesis) in CPK cell suspension culture; format: cell-based, mouse; settings: ± SD, three wells; concentrations as in Table II; control 100 ± 11; 1440 min
Protocol: Growth studies were performed on kidney cells derived from day 10, 21 and 28 postnatal CPK mice and their normal littermates. Immediately after cells were placed in suspension or monolayer culture, 3 μCi of ^3 H-thymidine (^3 H-dThd, specific activity 45 Ci/mmol, Amersham, Ill.) was placed in each well of the culture plate. DNA synthesis was assessed by incorporation of ^3 H-dThd over the 24 hours of culture, and trichloroacetic acid-insoluble. radioactivity was expressed as cpm/μg protein. Protein was assayed with the BCA reagent as described by the manufacturer (Pierce, Rockford, Ill.). At 24 hours of culture, an aliquot (0.2 ml) of the suspension was removed and the number of cysts counted using an inverted microscope. The number of cysts was expressed as a ratio factored for the total number of cells in the suspension at 24 hours of culture. Cyst diameter was measured at 100× using an eyepiece micrometer.
The effects of various metabolic inhibitors on cyst formation were studied in cultures derived from day 21 postnatal CPK mice. […] Taxol (25 μM), a microtubule specific inhibitor, was from Calbiochem (La Jolla, Calif.). All other chemicals were obtained from Sigma Chemical Co. Cytosine arabinoside was added at the final concentration of 20 μg/ml to inhibit DNA synthesis; α-amanitin at 100 ng/ml to inhibit RNA synthesis; cycloheximide at 40 μg/ml to inhibit protein synthesis; amiloride at 1 mM to inhibit the renal epithelial Na^+ -H^+ exchange; ouabain at 0.5 mM to inhibit Na^+ -K^+ -ATPase; brefeldin-A at 10 μg/ml to inhibit transport of surface proteins; griseofulvin at 350 μM to inhibit microtubule function; colchicine at 10 μM to inhibit microtubule polymerization; and cytochalasin-B and cytochalasin-D at 10 μM to depolymerize actin filaments.
In the presence of these metabolic inhibitors in vitro, cyst formation was noted to be either present or absent; if present, the diameters of 20 cysts from a 0.2 ml aliquot were measured. In the same samples, ^3 H-dThd incorporation was also measured as described above. […] After each wash, cell clusters were collected by centrifuging at 200×g for 1 minute and the supernatant discarded. Washed cell clusters were resuspended in the original volume of growth medium without inhibitors, placed in agarose coated wells and incubated at 37° C. in a moisture saturated incubator in 5% CO2 and air.
In this table, the mean cyst size is reported as ±SD with a measurement of twenty cysts. The ^3 H-dThd incorporation is reported as ±SD using measurements of three wells. The * indicates […] versus control. […] The entries listed as "NA" in the table indicate data that is not available.

[2] = test system: human ADPKD cells; test: In vitro cyst formation in human ADPKD cells; format: cell-based; settings: human ADPKD cells; cytosine arabinoside 20 μg/ml, α-amanitin 100 ng/ml, cycloheximide 40 μg/ml, amiloride 1 mM, ouabain 0.5 mM, taxol 25 μM, colchicine 10 μM, vinblastine 1 μM, cytochalasins 10 μM
Text: I have substituted human ADPKD cells for the murine CPK cells of Example 1 and produced similar results. Other cyst-forming cells are believed to also form suitable results with only minor deviations from the conditions set forth in Example 1.
Cell suspensions were separated from debris by sedimentation at unit gravity and decantation. After washing once with DMEM/F12 medium, cells were suspended in DMEM/F12 supplemented with 1.2 gm/l sodium bicarbonate, 1× insulin, transferrin and selenium (Sigma # 11184), 1% lipids supplement (Sigma # L4646) and 1× antibiotic/antimycotic (Sigma # A7292) at a density of 5×10^4 cells per ml. Two mls of the cell suspension were aliquoted into each well of a six-well plastic cell culture plates that had been precoated with 2 mls of 1% low melting point agarose in DMEM/F12 and incubated at 37° C. in a humidified atmosphere of 5% CO2 in air.
I used the in vitro cyst formation system of the present invention to analyze compounds that affect the process of cyst formation. To determine the therapeutic effectiveness of an agent, cyst-forming cells are suspended in a medium to which the agent has been added. These cells are then cultured on a solid phase without formation of a layer of cells on the surface, such as in the assay system described in Example 1. The extent to which the cells actually form cysts can be detected and compared to the extent of cyst formation expected if no agent were added. If the amount of cyst formation is lower than expected, then the agent is a good candidate for therapeutic intervention of cystic diseases.

[3] = test system: Murine CPK Cells; test: In vitro cyst formation and cyst size in suspension culture of murine CPK cells; format: cell-based, mouse; settings: day 21, 24 h, final concentration per Table II (cytosine arabinoside 20 μg/ml, α-amanitin 100 ng/ml, cycloheximide 49 μg/ml, ouabain 1 mM, amiloride 1 mM, brefeldin-A 10 μg/ml, griseofulvin 350 μM, colchicine 10 μM, vinblastine 1 μM, nocodazole 30 μM, taxol 25 μM, cytochalasins 10 μM)

## CC(=O)O[C@H]1C(=O)[C@@]2(C)[C@H]([C@H](OC(=O)c3ccccc3)[C@]3(O)C[C@H](OC(=O)[C@H](O)[C@@H](NC(=O)c4ccccc4)c4ccccc4)C(C)=C1C3(C)C)[C@]1(OC(C)=O)CO[C@@H]1C[C@@H]2O [Taxol]
[1]
  ^3 H-dThd Incorporation: 90 ± 11 % control
[2]
  cyst formation (in words): reversibly inhibited in vitro cyst formation in both models
[3]
  Cyst Formation (+/-): -
